Results: US20060063736A1, “Compositions and methods for inhibiting mucin-type O-linked glycosylation” (priority 2004, published 2006)

Key:
[1] = target: T1, mppGalNAcT-1 (Mus musculus, UniProt O08912); assay: ELLA for ppGalNAcTs, mppGalNAcT-1; type: biochemical, murine; conditions: for IC50: ELLA, 20 μM UDP-GalNAc, 50 μM EA2 peptide 4; for mode of inhibition with respect to UDP-GalNAc: mppGalNAcT-1; for Ki: mppGalNAcT-1, with respect to UDP-GalNAc, read-out: KI versus UDP-GalNAc
T1 construct: plasmids encoding truncated secreted ppGalNAcTs-1 to −5, -7, -10 and -11; made in house; host or cells: COS-7
T1 sequence (O08912 29-559 limits assumed): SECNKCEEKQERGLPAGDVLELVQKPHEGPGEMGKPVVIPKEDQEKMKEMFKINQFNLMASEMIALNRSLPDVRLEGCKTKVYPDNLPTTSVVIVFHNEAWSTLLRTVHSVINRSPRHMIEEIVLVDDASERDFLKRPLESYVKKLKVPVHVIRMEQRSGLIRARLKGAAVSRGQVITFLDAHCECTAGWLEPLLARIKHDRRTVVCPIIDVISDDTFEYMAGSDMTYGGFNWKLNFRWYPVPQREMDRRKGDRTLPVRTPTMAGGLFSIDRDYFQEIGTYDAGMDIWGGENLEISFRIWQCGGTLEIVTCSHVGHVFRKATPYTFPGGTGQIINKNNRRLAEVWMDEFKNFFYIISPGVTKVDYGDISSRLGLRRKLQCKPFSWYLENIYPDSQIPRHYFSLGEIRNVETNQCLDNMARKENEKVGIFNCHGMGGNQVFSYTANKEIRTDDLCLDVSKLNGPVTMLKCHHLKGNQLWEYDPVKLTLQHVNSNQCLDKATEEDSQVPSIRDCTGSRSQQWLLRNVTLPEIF
Method: COS-7 cells were transiently transfected with plasmids encoding truncated secreted ppGalNAcTs-1 to −5, -7, -10 and -11 as previously described. Hagen et al. (1997) J. Biol. Chem. 272:13843-13848. The crude conditioned medium was used as the enzyme source.
Standard reaction conditions for ppGalNAcT assays were as follows. The reaction mixture contained the following components in a final volume of 25 μL: 10 mM MnCl2, 40 mM sodium cacodylate, 40 mM β-mercaptoethanol, 0.1% Triton X-100, pH 6.5, 5 μL of conditioned media, and various concentrations of EA2 peptide 4, UDP-GalNAc and inhibitor. All uridine-based compounds were dissolved in dimethyl sulfoxide (DMSO). The concentration of DMSO in the reaction mixture was limited to 2% (v/v), as higher concentrations decreased ppGalNAcT activity. For inhibitor assays, reaction mixtures for positive controls also contained 2% DMSO. Unless otherwise stated, inhibitor assays were performed using 20 μM UDP-GalNAc and 50 μM EA2 peptide 4, the KM values for both substrates. Reactions were incubated at 37° C. and were terminated by the addition of 10 μL of 0.1 M EDTA. All experiments were performed in duplicate. Reaction rates were linear over the period monitored (20-30 min).
96-Well NeutrAvidin-coated plates were prewashed 3 times with 200 μL of wash buffer (25 mM Tris, 150 mM NaCl, 0.1% bovine serum albumin (BSA) (w/v), and 0.05% Tween (v/v), pH 7.2). Reactions were then transferred to the 96-well plates, incubated for 1 hour at room temperature (rt) and subsequently washed 3 times with 200 μL of phosphate-buffered saline (PBS) containing 0.5% BSA and 0.05% Tween, pH 7.1. A 100-μL solution of HPA-HRP in standard PBS buffer (1 μg/mL, pH 7.4) was added and the reaction was incubated for 1 h at rt. After 3 washes with 200 μL of PBS, bound HPA-HRP was quantified by the addition of 100 μL of TMB peroxide solution. The solutions were incubated for 5-15 min in the dark at rt. HRP activity was terminated by the addition of 50 μL of 2 N H2SO4 and the resulting solution was analyzed at 450 nm using a UV/Vis microtiter plate reader. The amount of product generated by the ppGalNAcT was extrapolated from absorbance values using an equation fit to the standard curve derived from Origin 6.1 software.
In order to screen the library in high-throughput format, a non-radioactive enzyme linked lectin assay (ELLA) for ppGalNAcTs was developed. As an acceptor substrate, the EA2 peptide (PTTDSTTPAPTTK; SEQ ID NO:12), a fragment of rat submandibular mucin, was chosen. Albone et al. (1994) J. Biol. Chem. 269:16845-16852. This peptide has been previously shown to be an efficient substrate for murine (m) ppGalNAcT-1 and is preferentially glycosylated at the fourth Thr residue from the N-terminus (underlined). Ten Hagen et al. (2001, supra). Biotinylation of EA2 allowed capture of (glyco)peptides onto 96-well NeutrAvidin-coated plates. The GalNAc-modified glycopeptide product could be detected using the α-GalNAc-specific lectin Helix pomatia agglutinin (HPA) (Hammarstrom et al. (1977) Biochemistry 16:2750-2755) conjugated to horseradish peroxidase (HRP). The bound HRP was quantified by addition of a chromogenic substrate.

[2] = test system: Jurkat cells; assay: Annexin-V staining of Jurkat cells (apoptosis); type: cell-based, human; conditions: 2 d treatment
Method: Jurkat cells were seeded at 250,000 cells/well (determined by Coulter cell counter) in 12-well polystyrene tissue culture plates in 1.0 mL of media and treated with various concentrations of 1-68A or 2-68A from 50 mM dimethyl sulfoxide (DMSO) stock solutions or doxorubicin or campothecin from 1 mM DMSO stock solutions. After 2 d, cells were harvested, washed twice with PBS buffer (PBS, pH 7.4, 0.1% FCS, 0.1% NaN3 w/v) and stained with FITC-HPA (1 μg/mL) or FITC-Con A (5 μg/mL with 1 mM CaCl2) in PBS, pH 7.4 in the dark for 1 h at 4° C. Cells were washed twice with PBS buffer, resuspended in 300 μL of PBS buffer and analyzed by flow cytometry (FacsCaliber, BD Instruments). Annexin-V staining was performed according to the manufacturer's protocols (Invitrogen).
To directly monitor ppGalNAcT activities in cells, Jurkat cells (human T-cell lymphoma), which are known to produce only the Tn-antigen (FIG. 1) as their O-linked glycans, were chosen. Piller et al. (1990) J. Biol. Chem. 265:9264-9271. Changes in Tn-antigen expression on the surface of Jurkat cells were monitored by HPA binding followed by flow cytometry analysis. Con A staining of N-linked glycans was used as a control for non-specific inhibition of protein glycosylation. Baenziger and Fiete (1979) J. Biol. Chem. 254:2400-2407.

Structure (SMILES)	IC50 [1] [µM]	mode of inhibition with respect to UDP-GalNAc [1]	Ki [1] [µM]	Annexin-V staining (induction of apoptosis) [2]
O=c1ccn([C@@H]2O[C@H](CON=Cc3ccc(O)c(O)c3O)[C@@H](O)[C@H]2O)c(=O)[nH]1 [1-68A]	21 ± 1	competitive	7.8 ± 0.1	confirmed the induction of apoptosis
O=C(CON=Cc1ccc(O)c(O)c1O)NC[C@H]1O[C@@H](n2ccc(=O)[nH]c2=O)[C@H](O)[C@@H]1O [2-68A]	24 ± 2	competitive	7.8 ± 1	confirmed the induction of apoptosis
